Results from US9862762B2, “Monoclonal antibodies which bind human periostin” (MEDIMMUNE, LLC, priority 2014, dated 2018).
Values joined by “and” are separate entries in the source; they are usually repeats but may differ in a detail not shown here. Equal values may be shown once.

Key:
[1] = tested on: adults with uncontrolled, severe asthma; assay: Phase 2b study CD-RI-CAT-354-1049 of SC tralokinumab, subgroup analysis by baseline serum periostin; format: in vivo, human; details: for Asthma exacerbation rate reduction: tralokinumab 300 mg Q2W vs placebo; for Change from baseline in ACQ-6 / Change from baseline in AQLQ / Percent change from baseline in FEV1: tralokinumab 300 mg Q2W
Experimental: A 5-week screening/run-in period (Week-5 to -1 [Day-1]) preceded randomisation. Starting at Week-4 (Day-28), patients received a fixed-dose combination product of fluticasone/salmeterol, either as an MDI (230 μg/21 μg) at a dose of 2 inhalations twice per day or as a DPI (500 μg/50 μg) at a dose of one inhalation twice per day. If the patient was also taking additional asthma controller medications (including leukotriene modifiers, theophylline, cromones, a secondary ICS, or oral prednisolone ≦20 mg/day or equivalent OCS), then these medications were to be continued at a stable dose during the screening/run-in and treatment period.
Patients were randomised in a 1:1 ratio to one of 2 cohorts (Cohort 1 or Cohort 2).
The median periostin level used in the study to define high periostin was a baseline serum periostin of ≧23 ng/mL (i.e., high periostin) as measured using an immunoassay.
FIGS. 11A-B; TABLE 4. The median periostin level used in the study to define high periostin was a baseline serum periostin of about ≧23 ng/mL (i.e., high periostin) as measured using an immunoassay. For a continuous representation of AER reduction by periostin level and percent change from baseline in pre-bronchodilator FEV, by serum periostin level, see FIG. 10.

[2] = tested on: patients with uncontrolled asthma; details: above-median vs below-median baseline serum periostin; cited from earlier work
[3] = tested on: EPIAIRWAY tissue (normal and asthmatic lung epithelium); assay: Periostin levels in IL-13 stimulated […] tissue models; format: cell-based, human; details: stimulation with 50 ng/mL IL-13 for 48 hours (FIG. 6)
Experimental: FIG. 6: Periostin levels in IL-13 Stimulated […]™ Models (Normal and Asthmatic Lung Epithelium). Detection of periostin levels in […]™ tissue obtained from either normal healthy individuals or from asthma patients each receiving different treatments: Advair only; oral and inhaled steroids; no medication; or albuterol only. Periostin levels were determined using the biotin/streptavidin-HRP sandwich ELISA assay using 4B4.B11 as the capture antibody and biotinylated 7B5.C4 as the detection antibody. Samples receiving steroid were pre-treated for 6 hrs with 100 nM budesonide. Samples were either unstimulated or stimulated with 50 ng/mL IL-13±budesonide for 48 hours. Periostin levels increase following stimulation with IL-13. This increase is reduced with steroid treatment.
The assay provided in this disclosure was further used to measure periostin levels in the […]™ tissue model. EpiAirway tissue models were obtained from MatTek corporation. These tissues are a 3-D model of respiratory tract tissue obtained from either normal healthy individuals or from asthma patients. The model was used to evaluate 1 normal donor and 4 asthma donors. The 4 asthma donors each had received different treatments: Advair only; oral and inhaled steroids; no medication; or albuterol only. All tissue samples were cultured in appropriate cell culture media (provided from MatTek) for 24 hrs prior to stimulation. […]

[4] = post hoc, 300 mg Q2W, FEV1 reversibility≧12% and serum periostin≧median at baseline

tralokinumab
percent change from baseline in pre-bronchodilator FEV1 over time ([1]; 300 mg Q2W group, through to Week 53, (FIG. 11B)): No significant increases in FEV1
percent change from baseline in pre-bronchodilator FEV1 over time ([1]; 300 mg Q2W group, through to Week 53, periostin >=median (FIG. 11A)): Relative increases in FEV1 were observed
percent change from baseline in pre-bronchodilator FEV1 over time ([1]; Q2/4W group, through to Week 53, (FIG. 11B)): No significant increases in FEV1
reduction in serum periostin levels ([1]; patients with baseline serum periostin above the median compared to those below the median): Greater reduction
percentage increase from baseline in pre-bronchodilator FEV1 compared to placebo [1, 4]: 13.85%
reduction in AER [1, 4]: 54%
Asthma exacerbation rate reduction ([1]; Week 53, ITT (N = 150)): 7%
Asthma exacerbation rate reduction ([1]; Week 53, baseline serum Periostin ≧ Median): 25%
Change from baseline in ACQ-6 ([1]; ITT): −0.18
Change from baseline in AQLQ ([1]; ITT): 0.21
Change from baseline in ACQ-6 ([1]; Periostin < Median): −0.02
Change from baseline in AQLQ ([1]; Periostin < Median): 0.21
Change from baseline in ACQ-6 ([1]; Periostin ≧ Median): −0.23
Change from baseline in AQLQ ([1]; Periostin ≧ Median): 0.22
Percent change from baseline in FEV1 ([1]; Week 53, ITT / regardless of serum periostin level): 7.1%
Percent change from baseline in FEV1 ([1]; Week 53, Periostin < Median): 7.06%
Percent change from baseline in FEV1 ([1]; Week 53, Periostin ≧ Median): 6.75% and 6.8%

lebrikizumab
increases in FEV1 [2]: larger increases in FEV1

IL-13: 114 amino acid cytokine used to stimulate periostin expression
Periostin levels [3]: increase
